The source of these data is patent US20220289679A1, “HETEROCYCLIC COMPOUND” (Takeda Pharmaceutical Company Limited, priority 2019, published 2022).

This assay deals with T1, human GCS (glucosylceramide synthase) (Homo sapiens, UniProt Q16739).
T1 construct: made in house; host or cells: Expi293F cells (transient expression; microsome fraction)
T1 sequence (Q16739 1-394): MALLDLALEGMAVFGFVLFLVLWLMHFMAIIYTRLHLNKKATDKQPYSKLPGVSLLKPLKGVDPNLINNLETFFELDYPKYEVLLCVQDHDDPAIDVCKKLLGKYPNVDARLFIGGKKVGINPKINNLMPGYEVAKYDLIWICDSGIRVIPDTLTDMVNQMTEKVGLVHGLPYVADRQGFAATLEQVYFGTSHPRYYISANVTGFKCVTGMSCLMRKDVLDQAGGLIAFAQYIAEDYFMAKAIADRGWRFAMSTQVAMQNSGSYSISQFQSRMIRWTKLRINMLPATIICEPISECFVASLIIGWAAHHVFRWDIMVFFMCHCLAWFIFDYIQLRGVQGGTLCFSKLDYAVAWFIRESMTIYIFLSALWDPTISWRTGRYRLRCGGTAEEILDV
The experiment in a line: Glucosylceramide Synthase (GCS) Assay. The class given is biochemical. Particulars: test compound 10 μM; microsome fraction of Expi293F cells expressing human GCS; 1.7 μM UDP-glucose, 3 μM C8 ceramide; room temperature 60 min; C8 glucosylceramide by Rapidfire MS/MS; read-out: GCS enzyme inhibitory rate at 10 μM (%). Here is the method: In enzyme assay, a microsome fraction obtained by transient expression by Expi293F™ cells (catalog number: A14527, Thermo Fisher Scientific) was used as a glucosylceramide synthase source. Liposomal C8 ceramide and UDP-glucose were used as substrates. For each substrate concentration, 1.7 μM UDP-glucose, which is equal to the Km value, and 3 μM C8 ceramide were used. After the enzymatic reaction, the analysis was performed with Rapidfire MS/MS (API-4000™, SCIEX), and C8 glucosylceramide was quantified to evaluate the inhibitory activity of the test compound against glucosylceramide synthase activity.
PcDNA3.3TOPO vector (catalog number: K830001, Thermo Fisher Scientific) into which the human GCS gene was inserted was introduced into Expi293F™ Cells (catalog number: A14527, Thermo Fisher Scientific) by using ExpiFectamine™ 293 Transfection Kit (catalog number: A14525, Thermo Fisher Scientific). The cultured cells were dissolved in D-PBS (catalog number: 048-29805, Fuji Film Wako Pure Chemical Industries, Ltd.) containing 1 mM PMSF, and the solution was allowed to stand on ice for 30 minutes, and then subjected to cell disruption (homogenized). The disruption solution was centrifuged at 10,000×g for 20 minutes at 4° C., and the obtained supernatant was centrifuged at 142,400×g for 60 minutes at 4° C. The obtained precipitate was resuspended in a D-PBS solution containing 1 mM PMSF, and homogenized again to prepare as a microsome fraction. Protein quantification was performed by the CBB method.
A 1 mM compound solution prepared by dissolving the test compound in DMSO was added to a 384-well plate by 100 nL so that the final concentration of the test compound was 10 μM. Next, a substrate solution consisting of 3.4 μM UDP-glucose and 6 μM C8 ceramide was added by 5 μL, followed by an enzyme solution consisting of a 25 μg/mL microsome fraction by 5 μL. C8 ceramide was prepared from liposomes composed of 15 mol % C8 ceramide and 85 mol % dioleoyl phosphatidylcholine (1,2-dioleoyl-sn-glycero-3-phosphocholine: DOPC). The enzymatic reaction was carried out in a solution consisting of 20 mM tris-hydrochloric acid buffer (pH 7.5), 0.01% Tween 20, 0.01% bovine serum albumin and 1 mM dithiothreitol at room temperature for 60 min. Then, a solution consisting of 75% isopropanol and 1% formic acid containing 0.25 μM N-Octadecanoyl-D35-psichosine (catalog number: 1914, Matreya) as an internal standard substance was added by 60 μL to stop the enzymatic reaction. 5 μL of the centrifugal supernatant of the obtained reaction product was analyzed by Rapidfire MS/MS (Agilent Technologies) using API-4000™ (SCIEX), and the C8 glucosylceramide was quantified to evaluate the inhibitory activity of the test compound against the glucosylceramide synthase activity. The inhibitory activity of the test compound was evaluated when the C8 glucosylceramide level in the enzyme-free solution was considered as 100% inhibitory and the enzyme activity of the DMSO group in the absence of the compound was considered as 0% inhibitory.
For `Cc1cc(C(=O)Nc2ccc(C(C)(C)O)cc2)c(=O)n(-c2ccccc2OCC(F)F)n1` [Example 136, 2-[2-(2,2-difluoroethoxy)phenyl]-N-[4-(2-hydroxypropan-2-yl)phenyl]-6-methyl-3-oxo-2,3-dihydropyridazine-4-carboxamide], the inhibition at 10 µM turned out to be 100%.

For `Cn1cc(C(=O)Nc2ccc(OCC(C)(C)O)cc2)c(=O)c(-c2ccccc2OCC(F)F)n1` [Example 164, 6-[2-(2,2-difluoroethoxy)phenyl]-N-[4-(2-hydroxy-2-methylpropoxy)phenyl]-2-methyl-5-oxo-2,5-dihydropyridazine-4-carboxamide], the inhibition at 10 µM was 94%.

Take `N#Cc1ccc(NC(=O)c2cccn(-c3ccccc3OCC(F)(F)F)c2=O)cn1` [Example 24, N-(6-cyanopyridin-3-yl)-2-oxo-1-[2-(2,2,2-trifluoroethoxy)phenyl]-1,2-dihydropyridine-3-carboxamide]: the inhibition at 10 µM was determined as 98%.

As to `CC(F)(F)COc1ccccc1-n1cccc(C(=O)Nc2ccc(C(C)(C)O)cc2)c1=O` [Example 99, 1-[2-(2,2-difluoropropoxy)phenyl]-N-[4-(2-hydroxypropan-2-yl)phenyl]-2-oxo-1,2-dihydropyridine-3-carboxamide], the inhibition at 10 µM is 99%.

In the case of `Cc1cc(C(=O)Nc2ccc(C(C)(C)O)cc2)c(=O)n(-c2ccc(F)cc2OCC(F)(F)F)c1` [Example 107, 1-[4-fluoro-2-(2,2,2-trifluoroethoxy)phenyl]-N-[4-(2-hydroxypropan-2-yl)phenyl]-5-methyl-2-oxo-1,2-dihydropyridine-3-carboxamide], the inhibition at 10 µM is 100%.

With `Cc1cc(C(=O)Nc2ccc(C(C)(C)O)cn2)c(=O)n(-c2ccccc2OCC(F)F)n1` [Example 137, 2-[2-(2,2-difluoroethoxy)phenyl]-N-[5-(2-hydroxypropan-2-yl)pyridin-2-yl]-6-methyl-3-oxo-2,3-dihydropyridazine-4-carboxamide], the inhibition at 10 µM was 99%.

For `O=C(Nc1ccc(OCC(F)(F)F)nc1)c1cccn(-c2ccc(F)cc2OCC(F)(F)C(F)(F)F)c1=O` [Example 56, 1-[4-fluoro-2-(2,2,3,3,3-pentafluoropropoxy)phenyl]-2-oxo-N-[6-(2,2,2-trifluoroethoxy)pyridin-3-yl]-1,2-dihydropyridine-3-carboxamide], the inhibition at 10 µM was found to be 100%.

Take `N#CCc1ccc(NC(=O)c2cccn(-c3ccccc3OCC(F)(F)F)c2=O)cn1` [Example 86, N-[6-(cyanomethyl)pyridin-3-yl]-2-oxo-1-[2-(2,2,2-trifluoroethoxy)phenyl]-1,2-dihydropyridine-3-carboxamide]: the inhibition at 10 µM is 88%.

As to `O=C(Nc1ccc(OCCC(F)(F)F)nc1)c1cccn(-c2ccc(F)cc2OCC(F)(F)F)c1=O` [Example 64, 1-[4-fluoro-2-(2,2,2-trifluoroethoxy)phenyl]-2-oxo-N-[6-(3,3,3-trifluoropropoxy)pyridin-3-yl]-1,2-dihydropyridine-3-carboxamide], the inhibition at 10 µM came to 99%.

For the molecule `O=C(Nc1cnn(CC(F)(F)C(F)(F)F)c1)c1cccn(-c2ccc(F)cc2OCC(F)(F)F)c1=O` [Example 62, 1-[4-fluoro-2-(2,2,2-trifluoroethoxy)phenyl]-2-oxo-N-[1-(2,2,3,3,3-pentafluoropropyl)-1H-pyrazol-4-yl]-1,2-dihydropyridine-3-carboxamide], the inhibition at 10 µM is 77%.

In the case of `CC(C)(O)c1ccc(NC(=O)c2cccn(-c3ncncc3OCC(F)(F)F)c2=O)cn1` [Example 119, N-[6-(2-hydroxypropan-2-yl)pyridin-3-yl]-2-oxo-1-[5-(2,2,2-trifluoroethoxy)pyrimidin-4-yl]-1,2-dihydropyridine-3-carboxamide], the inhibition at 10 µM was 74%.

Turning to `Cc1cc(C(=O)Nc2ccc(C(O)(C(F)F)C(F)F)cc2F)c(=O)n(-c2ccccc2OCC(F)F)n1` [Example 156, 2-[2-(2,2-difluoroethoxy)phenyl)-N-[2-fluoro-4-(1,1,3,3-tetrafluoro-2-hydroxypropan-2-yl)phenyl]-6-methyl-3-oxo-2,3-dihydropyridazine-4-carboxamide], the inhibition at 10 µM came to 100%.

Take `N#Cc1cc(F)ccc1-n1cccc(C(=O)Nc2ccc(OCC(F)(F)F)nc2)c1=O` [Example 52, 1-(2-cyano-4-fluorophenyl)-2-oxo-N-[6-(2,2,2-trifluoroethoxy)pyridin-3-yl]-1,2-dihydropyridine-3-carboxamide]: the inhibition at 10 µM was determined as 85%.

For `O=C(Nc1cnn(CC2(F)CC2)c1)c1cccn(-c2ccc(F)cc2OCC(F)(F)F)c1=O` [Example 66, N-{1-[(1-fluorocyclopropyl)methyl]-1H-pyrazol-4-yl}-1-[4-fluoro-2-(2,2,2-trifluoroethoxy)phenyl]-2-oxo-1,2-dihydropyridine-3-carboxamide], the inhibition at 10 µM came to 60%.

With `CC(C)(O)COc1ccc(NC(=O)c2cccn(-c3ccc(F)cc3OCC(F)(F)F)c2=O)cc1` [Example 60, 1-[4-fluoro-2-(2,2,2-trifluoroethoxy)phenyl]-N-[4-(2-hydroxy-2-methylpropoxy)phenyl]-2-oxo-1,2-dihydropyridine-3-carboxamide], the inhibition at 10 µM worked out at 92%.

With `O=C(Nc1ccc(C(O)C2CC2)nc1)c1cccn(-c2ccccc2OCC(F)(F)F)c1=O` (racemic) [Example 76, rac-N-{6-[cyclopropyl(hydroxy)methyl]pyridin-3-yl}-2-oxo-1-[2-(2,2,2-trifluproethoxy)phenyl]-1,2-dihydropyridine-3-carboxamide], the inhibition at 10 µM was 98%.

As to `COc1cc(F)ccc1-n1nccc(C(=O)Nc2ccc(OCC(F)(F)F)nc2)c1=O` [Example 23, 2-(4-fluoro-2-methoxyphenyl)-3-oxo-N-[6-(2,2,2-trifluoroethoxy)pyridin-3-yl]-2,3-dihydropyridazine-4-carboxamide], the inhibition at 10 µM is 87%.

With `CC(C)(O)c1ccc(NC(=O)c2cccn(-c3ccc(F)cc3OCC(F)(F)F)c2=O)cn1` [Example 85, 1-[4-fluoro-2-(2,2,2-trifluoroethoxy)phenyl]-N-[6-(2-hydroxypropan-2-yl)pyridin-3-yl]-2-oxo-1,2-dihydropyridine-3-carboxamide], the inhibition at 10 µM turned out to be 94%.

Take `COc1ccccc1-n1cccc(C(=O)Nc2ccc(Oc3ccccc3)cc2)c1=O` [Example 2, 1-(2-methoxyphenyl)-2-oxo-N-(4-phenoxyphenyl)-1,2-dihydropyridine-3-carboxamide]: the inhibition at 10 µM was determined as 95%.

Take `O=C(Nc1ccc(C(O)(C(F)F)C(F)F)nc1)c1cn(CC2COC2)nc(-c2ccccc2OCC(F)F)c1=O` [Example 188, 6-[2-(2,2-difluoroethoxy)phenyl]-2-[(oxetan-3-yl)methyl]-5-oxo-N-[6-(1,1,3,3-tetrafluoro-2-hydroxypropan-2-yl)pyridin-3-yl]-2,5-dihydropyridazine-4-carboxamide]: the inhibition at 10 µM was 99%.

Take `Cn1cc(C(=O)Nc2ccc(C(C)(C)O)cc2)c(=O)c(-c2ccccc2OCC(F)(F)F)n1` [Example 166, N-[4-(2-hydroxypropan-2-yl)phenyl]-2-methyl-5-oxo-6-[2-(2,2,2-trifluoroethoxy)pheny]-2,5-dihydropyridazine-4-carboxamide]: the inhibition at 10 µM turned out to be 100%.

`CC(C)(O)c1ccc(NC(=O)c2cccn(-c3ccc(F)c(F)c3OCC(F)(F)F)c2=O)cc1` [Example 111, 1-[3,4-difluoro-2-(2,2,2-trifluoroethoxy)phenyl]-N-[4-(2-hydroxypropan-2-yl)phenyl]-2-oxo-1,2-dihydropyridine-3-carboxamide]: the inhibition at 10 µM stood at 98%.
